Tests used:
[1] = tested on: Huh7/Rep-Feo HCV replicon (HCV RNA replication); type: cell-based, Hepatitis C virus (strain HCV—N, genotype 1b); conditions: approximately 10-50 μM, most at 33 μM; for R-CompZ, compositeZ score for reporter gene assay: Table 2 antiviral hits of DOS set, 48 hours
OR6 cells = test: Secondary assay cell viability (CellTiter-Glo); conditions: 48 hours
Description: Secondary Assays-Hit Validation. Several hits from primary HTS, as well as functionally related compounds, were purchased from Sigma (St. Louis, Mo.), Calbiochem (San Diego, Calif.), and Microsource (Gaylordsville, Conn.). […] Ten mM of stock solutions of the individual compounds to be tested was prepared in the appropriate solvent (DMSO, ethanol, or H2O, according to the manufacturer's information) and stored at −20° C. Cells were seeded into 96-well plates at a density of 2000 cells/well in 100 μL of medium. The cells were incubated for 24 hours at 37° C. to obtain the optimal level of adherence. Solutions of candidate hit compounds were added to wells to achieve final concentrations of 0.1, 1, 10, 50, and 100 μM. The final concentration of DMSO or ethanol in every well was 1% or less by volume. Mock solutions were used as a negative control. PEG-IFN and ribavirin were used as positive controls at various concentrations, alone and in combination. The plates were then incubated at 37° C. with 5% CO2 for 48 hours before they were analyzed. Luminescent signal was generated using the Renilla luciferase assay kit (Promega) according to the manufacturer's instructions. Signal was then detected using a LumiCount (Packard BioScience Company) luminometer. Cell viability was assessed using CellTiter-Glo (Promega), following the manufacturer's instructions. All experiments were performed in triplicate.
Secondary Assays-Data Analysis. Values were presented as a percentage of mock treated control, which was arbitrarily set at 100%. Data were expressed as the mean (±) SD. […] Synergy calculations were performed using CalcuSyn (Biosoft; Cambridge, England).
Secondary Assays—Hit Validation: 10 mM of stock solutions of the individual compounds to be tested were prepared in DMSO and stored at −20° C. Cells were seeded into 96-well plates at a density of 2,000 cells/well in 100 μl of medium. The cells were incubated for 24 hours at 37° C. to obtain the optimal level of adherence. Solutions of candidate hit compounds were added to wells to achieve varying final concentrations between 0.01 and 100 μM. The final concentration of DMSO or ethanol in every well was 1% or less by volume. Mock solutions were used as a negative control. Peginterferon-alfa-2b (PEG-Intron; Schering Corp.; Kenilworth, N.J.) and ribavirin (Sigma; St. Louis, Mo.) were used as positive controls at various concentrations, alone and in combination. The plates were then incubated at 37° C. with 5% CO2 for 48 hours before they were analyzed. Luminescent signal was generated using the Renilla luciferase assay kit (Promega; Madison, Wis.) according to the manufacturer's instructions. Signal was then detected using a LumiCount™ (Packard BioScience Company; Downers Grove, Ill.) luminometer. Cell viability was assessed using CellTiter-Glo (Promega; Madison, Wis.), following the manufacturer's instructions. All experiments were performed in triplicate. Values were presented as a percentage of mock treated control, which was arbitrarily set at 100%. Data were expressed as the mean±SD.
Secondary Assays—Data Analysis: Values were presented as a percentage of mock treated control, which was arbitrarily set at 100%. Data were expressed as the mean±SD.

## CC(=O)OC[C@H]1O[C@H](CCO/N=C2/[C@H]3CCn4c(=O)n(-c5ccccc5)c(=O)n4[C@H]3[C@H](O)[C@@H]3O[C@H]23)C=C[C@@H]1OC(C)=O [BUCMLD-B10A3]
[1]
  R-CompZ, compositeZ score for reporter gene assay: −4.6336
OR6 cells
  concentrations at which cytotoxic effects were exhibited: above 7 μM

## Cc1cc2c(nc1C)CCCN2CC(C)O/N=C1/[C@H]2CCn3c(=O)n(-c4ccccc4)c(=O)n3[C@H]2[C@H](O)[C@@H]2O[C@H]12 (some centres unmarked) [BUCMLD-B10A5]
[1]
  R-CompZ, compositeZ score for reporter gene assay: −3.0849
OR6 cells
  concentrations at which cytotoxic effects were exhibited: ≥ 30 µM

## Cc1cc(C)c(-c2cc([C@H](C)O/N=C3/[C@H]4CCn5c(=O)n(-c6ccccc6)c(=O)n5[C@H]4[C@H](O)[C@@H]4O[C@H]34)on2)c(C)c1 [BUCMLD-B10A11]
[1]
  R-CompZ, compositeZ score for reporter gene assay: −4.7324
OR6 cells
  concentrations with no significant/observed cytotoxicity: ≤ 10 µM

## O=C1C2C=C(I)C(CC2OCCCCO)[C@@]12CO2 (some centres unmarked) [SM_A5B3_2P141]
[1]
  R-CompZ, compositeZ score for reporter gene assay: −2.5923

## O=C1C2(CO)C=C(Br)C(CC2c2ccccc2)[C@@]12CO2 (some centres unmarked) [SM_A6B5_2P100]
[1]
  R-CompZ, compositeZ score for reporter gene assay: −3.1341
OR6 cells
  concentrations with no significant/observed cytotoxicity: ≤ 30 µM

## COc1cc2c(cc1OC)-c1c/c(=N\c3c(C)cc(C)cc3C)n(C)c(=O)n1CC2 [trequinsin, reference compound]
[1]; known bioactives library
  primary screen hit result (in words): not identified as a hit
OR6 cells
  cytotoxicity (in words): significant cytotoxicity only at the higher concentrations of 50 and 100 μM
